Reference: patent US12522583B2, “Benzimidazole derivatives and aza-benzimidazole derivatives as Janus kinase 2 inhibitors and uses thereof” (Dana-Farber Cancer Institute, Inc., priority 2018, dated 2026)

Experiments:
Experiment in all cases: KINOMEscan
Assay type in all cases: binding
BMPR1A = BMPR1A (Homo sapiens (Human), UniProt P36894); settings: read-out: percent control
Text: (§1) Example 2. In Vitro Kinase Selectivity Profiling of the Compounds of the Present Disclosure

DDR2 = DDR2 (Homo sapiens (Human), UniProt Q16832); settings: read-out: percent control
Text: as §1

MST4 = MST4 (Homo sapiens (Human), UniProt Q9P289); settings: read-out: percent control
Text: as §1

CAMK2B = CAMK2B (Homo sapiens (Human), UniProt Q13554); settings: read-out: percent control
Text: as §1

TESK1 = TESK1 (Homo sapiens (Human), UniProt Q15569); settings: read-out: percent control
Text: as §1

FLT3(K663Q) = FLT3(K663Q) (Homo sapiens (Human), UniProt P36888, K663Q); settings: read-out: percent control
Text: as §1

WNK1 = WNK1 (Homo sapiens (Human), UniProt Q9H4A3); settings: read-out: percent control
Text: as §1

PIK3CB = PIK3CB (Homo sapiens (Human), UniProt P42338); settings: read-out: percent control
Text: as §1

CSNK1E = CSNK1E (Homo sapiens (Human), UniProt P49674); settings: read-out: percent control
Text: as §1

CLK3 = CLK3 (Homo sapiens (Human), UniProt P49761); settings: read-out: percent control
Text: as §1

PIK3CA(E542K) = PIK3CA(E542K) (Homo sapiens (Human), UniProt P42336, E542K); settings: read-out: percent control
Text: as §1

[1] = molecular target: ABL1(Q252H)-phosphorylated (Homo sapiens (Human), UniProt P00519, Q252H); settings: read-out: percent control
Text: as §1

MAP4K3 = MAP4K3 (Homo sapiens (Human), UniProt Q8IVH8); settings: read-out: percent control
Text: as §1

TAK1 = TAK1 (Homo sapiens (Human), UniProt O43318); settings: read-out: percent control
Text: as §1

MINK = MINK (Homo sapiens (Human), UniProt Q8N4C8); settings: read-out: percent control
Text: as §1

TLK2 = TLK2 (Homo sapiens (Human), UniProt Q86UE8); settings: read-out: percent control
Text: as §1

MLK2 = MLK2 (Homo sapiens (Human), UniProt Q02779); settings: read-out: percent control
Text: as §1

ARK5 = ARK5 (Homo sapiens (Human), UniProt O60285); settings: read-out: percent control
Text: as §1

AURKA = AURKA (Homo sapiens (Human), UniProt O14965); settings: read-out: percent control
Text: as §1

EPHA5 = EPHA5 (Homo sapiens (Human), UniProt P54756); settings: read-out: percent control
Text: as §1

PRKCD = PRKCD (Homo sapiens (Human), UniProt Q05655); settings: read-out: percent control
Text: as §1

NEK7 = NEK7 (Homo sapiens (Human), UniProt Q8TDX7); settings: read-out: percent control
Text: as §1

CSNK1G3 = CSNK1G3 (Homo sapiens (Human), UniProt Q9Y6M4); settings: read-out: percent control
Text: as §1

SRPK3 = SRPK3 (Homo sapiens (Human), UniProt Q9UPE1); settings: read-out: percent control
Text: as §1

PAK2 = PAK2 (Homo sapiens (Human), UniProt Q13177); settings: read-out: percent control
Text: as §1

PIP5K2C = PIP5K2C (Homo sapiens (Human), UniProt Q8TBX8); settings: read-out: percent control
Text: as §1

EGFR(L747-T751del, Sins) = settings: 1 μM
Text: as §1

CDK8 = CDK8 (Homo sapiens (Human), UniProt P49336); settings: read-out: percent control
Text: as §1

WEE1 = WEE1 (Homo sapiens (Human), UniProt P30291); settings: read-out: percent control
Text: as §1

CLK1 = CLK1 (Homo sapiens (Human), UniProt P49759); settings: read-out: percent control
Text: as §1

ERK2 = ERK2 (Homo sapiens (Human), UniProt P28482); settings: read-out: percent control
Text: as §1

HIPK4 = HIPK4 (Homo sapiens (Human), UniProt Q8NE63); settings: read-out: percent control
Text: as §1

TRPM6 = TRPM6 (Homo sapiens (Human), UniProt Q9BX84); settings: read-out: percent control
Text: as §1

VRK2 = VRK2 (Homo sapiens (Human), UniProt Q86Y07); settings: read-out: percent control
Text: as §1

MST3 = MST3 (Homo sapiens (Human), UniProt Q9Y6E0); settings: read-out: percent control
Text: as §1

NEK5 = NEK5 (Homo sapiens (Human), UniProt Q6P3R8); settings: read-out: percent control
Text: as §1

TAOK1 = TAOK1 (Homo sapiens (Human), UniProt Q7L7X3); settings: read-out: percent control
Text: as §1

EPHA2 = EPHA2 (Homo sapiens (Human), UniProt P29317); settings: read-out: percent control
Text: as §1

MEK5 = MEK5 (Homo sapiens (Human), UniProt Q13163); settings: read-out: percent control
Text: as §1

GSK3A = GSK3A (Homo sapiens (Human), UniProt P49840); settings: read-out: percent control
Text: as §1

SRMS = SRMS (Homo sapiens (Human), UniProt Q9H3Y6); settings: read-out: percent control
Text: as §1

Chain of NEK7 (Q8TDX7 whole entry): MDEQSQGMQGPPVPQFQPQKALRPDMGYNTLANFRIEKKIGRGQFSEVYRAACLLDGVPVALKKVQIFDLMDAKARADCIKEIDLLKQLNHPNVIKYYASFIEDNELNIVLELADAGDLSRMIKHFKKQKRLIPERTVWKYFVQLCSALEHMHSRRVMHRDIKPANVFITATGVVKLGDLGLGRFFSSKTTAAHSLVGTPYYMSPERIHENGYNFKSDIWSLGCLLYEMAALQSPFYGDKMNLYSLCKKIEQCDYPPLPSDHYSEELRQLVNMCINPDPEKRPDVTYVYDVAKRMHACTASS
Chain of EPHA2 (P29317 24-976): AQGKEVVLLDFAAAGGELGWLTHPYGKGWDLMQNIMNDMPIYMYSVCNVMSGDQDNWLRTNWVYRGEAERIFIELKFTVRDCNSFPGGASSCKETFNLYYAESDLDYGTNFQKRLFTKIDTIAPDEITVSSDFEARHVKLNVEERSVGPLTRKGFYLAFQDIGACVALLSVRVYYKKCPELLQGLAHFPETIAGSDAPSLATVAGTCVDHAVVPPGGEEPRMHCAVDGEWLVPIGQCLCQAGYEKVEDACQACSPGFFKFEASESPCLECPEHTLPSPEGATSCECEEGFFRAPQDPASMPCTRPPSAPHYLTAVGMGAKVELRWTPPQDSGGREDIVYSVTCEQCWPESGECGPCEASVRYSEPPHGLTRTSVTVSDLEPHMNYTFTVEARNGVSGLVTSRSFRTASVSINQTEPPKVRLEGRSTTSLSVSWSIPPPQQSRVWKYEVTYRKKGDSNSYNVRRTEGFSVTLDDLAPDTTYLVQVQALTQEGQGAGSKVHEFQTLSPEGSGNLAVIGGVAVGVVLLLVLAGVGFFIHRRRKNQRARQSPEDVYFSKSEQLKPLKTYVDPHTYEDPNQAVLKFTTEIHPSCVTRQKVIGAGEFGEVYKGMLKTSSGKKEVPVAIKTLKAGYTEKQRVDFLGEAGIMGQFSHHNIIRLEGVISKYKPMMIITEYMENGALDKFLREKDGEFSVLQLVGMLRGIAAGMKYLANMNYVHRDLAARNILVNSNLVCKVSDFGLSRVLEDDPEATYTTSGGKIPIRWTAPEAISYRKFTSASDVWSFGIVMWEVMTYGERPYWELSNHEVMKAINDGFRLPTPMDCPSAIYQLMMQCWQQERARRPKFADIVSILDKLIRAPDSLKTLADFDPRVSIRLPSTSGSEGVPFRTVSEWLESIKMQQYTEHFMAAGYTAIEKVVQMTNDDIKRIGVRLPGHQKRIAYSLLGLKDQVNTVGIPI
Chain of SRMS (Q9H3Y6 whole entry): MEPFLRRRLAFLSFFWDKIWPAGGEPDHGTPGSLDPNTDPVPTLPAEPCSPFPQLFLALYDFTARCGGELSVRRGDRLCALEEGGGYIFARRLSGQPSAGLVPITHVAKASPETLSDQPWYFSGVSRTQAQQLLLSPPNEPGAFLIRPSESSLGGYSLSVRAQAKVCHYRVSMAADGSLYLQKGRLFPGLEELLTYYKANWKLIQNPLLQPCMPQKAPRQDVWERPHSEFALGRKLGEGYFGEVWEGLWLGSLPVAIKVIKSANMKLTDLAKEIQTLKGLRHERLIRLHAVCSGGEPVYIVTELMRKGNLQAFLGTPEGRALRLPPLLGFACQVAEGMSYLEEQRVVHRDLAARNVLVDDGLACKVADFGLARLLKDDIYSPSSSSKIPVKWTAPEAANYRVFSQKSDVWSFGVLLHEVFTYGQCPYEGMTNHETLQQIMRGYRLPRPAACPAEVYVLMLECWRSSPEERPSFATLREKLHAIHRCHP
Chain of CLK3 (P49761 whole entry): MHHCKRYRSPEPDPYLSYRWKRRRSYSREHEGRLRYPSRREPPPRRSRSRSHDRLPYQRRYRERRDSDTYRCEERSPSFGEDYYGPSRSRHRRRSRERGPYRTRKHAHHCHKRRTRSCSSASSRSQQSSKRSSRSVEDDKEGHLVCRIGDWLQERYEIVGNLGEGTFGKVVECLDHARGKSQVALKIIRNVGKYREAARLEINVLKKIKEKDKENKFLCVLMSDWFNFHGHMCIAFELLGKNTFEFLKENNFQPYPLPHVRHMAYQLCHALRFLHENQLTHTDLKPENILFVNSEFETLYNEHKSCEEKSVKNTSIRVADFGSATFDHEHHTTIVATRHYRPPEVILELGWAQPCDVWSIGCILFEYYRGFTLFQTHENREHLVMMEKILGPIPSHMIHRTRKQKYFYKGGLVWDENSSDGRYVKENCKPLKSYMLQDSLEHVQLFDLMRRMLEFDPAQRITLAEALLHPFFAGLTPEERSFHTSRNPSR
Chain of TLK2 (Q86UE8 whole entry): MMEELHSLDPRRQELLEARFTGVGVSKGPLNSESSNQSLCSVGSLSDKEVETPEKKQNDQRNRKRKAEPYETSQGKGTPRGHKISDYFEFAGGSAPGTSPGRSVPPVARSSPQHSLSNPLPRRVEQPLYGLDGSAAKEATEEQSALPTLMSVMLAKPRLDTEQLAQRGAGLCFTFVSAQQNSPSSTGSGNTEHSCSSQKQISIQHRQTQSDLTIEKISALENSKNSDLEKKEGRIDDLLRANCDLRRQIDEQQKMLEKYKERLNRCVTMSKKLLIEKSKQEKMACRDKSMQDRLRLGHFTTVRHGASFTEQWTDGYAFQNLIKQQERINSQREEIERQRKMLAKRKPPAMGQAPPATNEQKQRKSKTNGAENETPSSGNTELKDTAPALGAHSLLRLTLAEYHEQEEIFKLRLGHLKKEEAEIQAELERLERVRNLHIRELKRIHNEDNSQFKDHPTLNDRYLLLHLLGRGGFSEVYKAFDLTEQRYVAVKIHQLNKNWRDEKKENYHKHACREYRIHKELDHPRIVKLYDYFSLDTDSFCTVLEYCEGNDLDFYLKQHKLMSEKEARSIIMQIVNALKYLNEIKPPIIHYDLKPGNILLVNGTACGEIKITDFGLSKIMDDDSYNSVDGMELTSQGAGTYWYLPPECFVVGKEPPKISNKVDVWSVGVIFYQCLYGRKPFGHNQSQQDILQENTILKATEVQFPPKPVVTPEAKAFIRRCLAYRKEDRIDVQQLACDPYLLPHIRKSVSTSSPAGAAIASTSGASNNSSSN
Chain of TAOK1 (Q7L7X3 whole entry): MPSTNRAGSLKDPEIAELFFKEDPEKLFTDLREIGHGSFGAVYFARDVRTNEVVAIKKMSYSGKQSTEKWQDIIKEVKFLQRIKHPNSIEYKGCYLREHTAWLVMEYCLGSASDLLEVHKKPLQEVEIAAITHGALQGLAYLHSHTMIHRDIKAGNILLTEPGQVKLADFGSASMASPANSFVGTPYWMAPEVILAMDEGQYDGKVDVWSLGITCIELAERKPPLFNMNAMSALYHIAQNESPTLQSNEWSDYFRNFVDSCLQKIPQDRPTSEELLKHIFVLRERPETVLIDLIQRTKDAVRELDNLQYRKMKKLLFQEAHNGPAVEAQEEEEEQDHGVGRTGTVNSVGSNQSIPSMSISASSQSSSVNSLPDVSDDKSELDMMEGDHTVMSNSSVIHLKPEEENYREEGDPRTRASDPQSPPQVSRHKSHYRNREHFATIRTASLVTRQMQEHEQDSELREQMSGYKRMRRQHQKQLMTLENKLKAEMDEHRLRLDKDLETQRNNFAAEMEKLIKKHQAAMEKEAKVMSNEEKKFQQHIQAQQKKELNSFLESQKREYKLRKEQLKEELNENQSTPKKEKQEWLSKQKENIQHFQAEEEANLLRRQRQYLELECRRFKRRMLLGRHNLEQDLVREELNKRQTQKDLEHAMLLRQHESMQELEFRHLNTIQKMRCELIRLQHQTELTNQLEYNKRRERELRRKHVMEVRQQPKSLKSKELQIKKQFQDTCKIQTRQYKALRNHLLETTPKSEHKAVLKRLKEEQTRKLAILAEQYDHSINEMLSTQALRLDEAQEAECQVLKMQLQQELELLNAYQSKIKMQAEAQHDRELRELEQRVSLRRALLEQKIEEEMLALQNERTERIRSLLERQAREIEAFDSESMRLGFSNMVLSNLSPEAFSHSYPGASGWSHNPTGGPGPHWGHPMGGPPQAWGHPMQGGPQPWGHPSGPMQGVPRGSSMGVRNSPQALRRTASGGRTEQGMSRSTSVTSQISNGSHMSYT
Chain of MEK5 (Q13163 whole entry): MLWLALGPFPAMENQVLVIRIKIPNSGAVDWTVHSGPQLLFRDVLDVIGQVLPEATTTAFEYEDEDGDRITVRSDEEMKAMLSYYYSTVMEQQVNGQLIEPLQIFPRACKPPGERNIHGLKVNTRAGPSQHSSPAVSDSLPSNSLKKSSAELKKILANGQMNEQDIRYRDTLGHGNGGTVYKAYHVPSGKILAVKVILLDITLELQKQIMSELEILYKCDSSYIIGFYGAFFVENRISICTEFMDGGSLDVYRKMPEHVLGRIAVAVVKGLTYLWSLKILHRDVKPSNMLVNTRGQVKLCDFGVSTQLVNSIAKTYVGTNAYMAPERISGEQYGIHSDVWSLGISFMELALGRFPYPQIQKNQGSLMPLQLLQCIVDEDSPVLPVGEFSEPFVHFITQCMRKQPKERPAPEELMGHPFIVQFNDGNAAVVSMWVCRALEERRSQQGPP
Chain of ERK2 (P28482 whole entry): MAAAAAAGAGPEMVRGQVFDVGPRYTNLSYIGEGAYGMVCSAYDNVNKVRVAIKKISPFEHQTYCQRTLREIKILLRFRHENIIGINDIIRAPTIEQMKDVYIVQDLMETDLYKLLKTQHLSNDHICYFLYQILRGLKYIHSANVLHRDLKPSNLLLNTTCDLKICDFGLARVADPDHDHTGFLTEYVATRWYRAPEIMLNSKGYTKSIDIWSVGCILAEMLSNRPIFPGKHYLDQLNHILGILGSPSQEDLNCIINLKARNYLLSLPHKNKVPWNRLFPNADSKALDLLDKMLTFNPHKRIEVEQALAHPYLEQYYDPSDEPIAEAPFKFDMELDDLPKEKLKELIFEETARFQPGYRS

SMILES: CCN1CCN(Cc2ccc(Nc3nc4ccc(Oc5ccnc(NC(C)=O)c5)cc4n3C)cc2C(F)(F)F)CC1 [Compound I-2]
- remaining binding at 1 µM (BMPR1A): 100%
- remaining binding at 1 µM (DDR2): 0%
- remaining binding at 1 µM (MST4): 89%
- remaining binding at 1 µM (CAMK2B): 92%
- remaining binding at 1 µM (TESK1): 67%
- remaining binding at 1 µM (FLT3(K663Q)): 16%
- remaining binding at 1 µM (WNK1): 100%
- remaining binding at 1 µM (PIK3CB): 100%
- remaining binding at 1 µM (CSNK1E): 90%
- remaining binding at 1 µM (CLK3): 94%
- remaining binding at 1 µM (PIK3CA(E542K)): 100%
- remaining binding at 1 µM [1]: 36%
- remaining binding at 1 µM (MAP4K3): 71%
- remaining binding at 1 µM (TAK1): 28%
- remaining binding at 1 µM (MINK): 92%
- remaining binding at 1 µM (TLK2): 98%
- remaining binding at 1 µM (MLK2): 100%
- remaining binding at 1 µM (ARK5): 100%
- remaining binding at 1 µM (AURKA): 69%
- remaining binding at 1 µM (EPHA5): 98%
- remaining binding at 1 µM (PRKCD): 92%
- remaining binding at 1 µM (NEK7): 88%
- remaining binding at 1 µM (CSNK1G3): 89%
- remaining binding at 1 µM (SRPK3): 100%
- remaining binding at 1 µM (PAK2): 97%
- remaining binding at 1 µM (PIP5K2C): 96%
- percent control (EGFR(L747-T751del, Sins)): 98%
- remaining binding at 1 µM (CDK8): 17%
- remaining binding at 1 µM (WEE1): 95%
- remaining binding at 1 µM (CLK1): 87%
- remaining binding at 1 µM (ERK2): 95%
- remaining binding at 1 µM (HIPK4): 100%
- remaining binding at 1 µM (TRPM6): 79%
- remaining binding at 1 µM (VRK2): 54%
- remaining binding at 1 µM (MST3): 94%
- remaining binding at 1 µM (NEK5): 38%
- remaining binding at 1 µM (TAOK1): 77%
- remaining binding at 1 µM (EPHA2): 100%
- remaining binding at 1 µM (MEK5): 59%
- remaining binding at 1 µM (GSK3A): 85%
- remaining binding at 1 µM (SRMS): 67%

SMILES: CCN1CCN(Cc2ccc(Nc3nc4ccc(Oc5ccnc(NC(C)=O)c5)c(C)c4n3C)cc2C(F)(F)F)CC1 [Compound I-6, N-(4-(2-(4-((4-ethylpiperazin-1-yl)methyl)-3-(trifluoromethyl)phenylamino)-1,7-dimethyl-1H-benzo[d]imidazol-6-yloxy)pyridin-2-yl)acetamide]
- remaining binding at 1 µM (BMPR1A): 98%
- remaining binding at 1 µM (DDR2): 0%
- remaining binding at 1 µM (MST4): 100%
- remaining binding at 1 µM (CAMK2B): 94%
- remaining binding at 1 µM (TESK1): 62%
- remaining binding at 1 µM (FLT3(K663Q)): 9.3%
- remaining binding at 1 µM (WNK1): 100%
- remaining binding at 1 µM (PIK3CB): 96%
- remaining binding at 1 µM (CSNK1E): 66%
- remaining binding at 1 µM (CLK3): 95%
- remaining binding at 1 µM (PIK3CA(E542K)): 100%
- remaining binding at 1 µM [1]: 24%
- remaining binding at 1 µM (MAP4K3): 74%
- remaining binding at 1 µM (TAK1): 10%
- remaining binding at 1 µM (MINK): 59%
- remaining binding at 1 µM (TLK2): 97%
- remaining binding at 1 µM (MLK2): 95%
- remaining binding at 1 µM (ARK5): 100%
- remaining binding at 1 µM (AURKA): 98%
- remaining binding at 1 µM (EPHA5): 98%
- remaining binding at 1 µM (PRKCD): 89%
- remaining binding at 1 µM (NEK7): 95%
- remaining binding at 1 µM (CSNK1G3): 94%
- remaining binding at 1 µM (SRPK3): 87%
- remaining binding at 1 µM (PAK2): 98%
- remaining binding at 1 µM (PIP5K2C): 93%
- percent control (EGFR(L747-T751del, Sins)): 100%
- remaining binding at 1 µM (CDK8): 10%
- remaining binding at 1 µM (WEE1): 100%
- remaining binding at 1 µM (CLK1): 94%
- remaining binding at 1 µM (ERK2): 100%
- remaining binding at 1 µM (HIPK4): 100%
- remaining binding at 1 µM (TRPM6): 84%
- remaining binding at 1 µM (VRK2): 100%
- remaining binding at 1 µM (MST3): 90%
- remaining binding at 1 µM (NEK5): 6.7%
- remaining binding at 1 µM (TAOK1): 46%
- remaining binding at 1 µM (EPHA2): 68%
- remaining binding at 1 µM (MEK5): 34%
- remaining binding at 1 µM (GSK3A): 93%
- remaining binding at 1 µM (SRMS): 38%
